These results are taken from patent publication US8952073B2, “Estrogenic compounds, process for their production and pharmaceutical uses thereof” (The University of Ottawa, priority 2008, dated 2015).

Several values for one entry are separate records, joined by “and”; a condition that tells them apart may be missing. Identical values can stand only once. Like-named read-outs stand apart in the source and are kept apart here.

One series deals with ERβ vs. ERα. Particulars: literature values; cited from earlier work.
Series [1] addresses T1, ERα (Homo sapiens, UniProt P03372).
T1 sequence (P03372 1-595): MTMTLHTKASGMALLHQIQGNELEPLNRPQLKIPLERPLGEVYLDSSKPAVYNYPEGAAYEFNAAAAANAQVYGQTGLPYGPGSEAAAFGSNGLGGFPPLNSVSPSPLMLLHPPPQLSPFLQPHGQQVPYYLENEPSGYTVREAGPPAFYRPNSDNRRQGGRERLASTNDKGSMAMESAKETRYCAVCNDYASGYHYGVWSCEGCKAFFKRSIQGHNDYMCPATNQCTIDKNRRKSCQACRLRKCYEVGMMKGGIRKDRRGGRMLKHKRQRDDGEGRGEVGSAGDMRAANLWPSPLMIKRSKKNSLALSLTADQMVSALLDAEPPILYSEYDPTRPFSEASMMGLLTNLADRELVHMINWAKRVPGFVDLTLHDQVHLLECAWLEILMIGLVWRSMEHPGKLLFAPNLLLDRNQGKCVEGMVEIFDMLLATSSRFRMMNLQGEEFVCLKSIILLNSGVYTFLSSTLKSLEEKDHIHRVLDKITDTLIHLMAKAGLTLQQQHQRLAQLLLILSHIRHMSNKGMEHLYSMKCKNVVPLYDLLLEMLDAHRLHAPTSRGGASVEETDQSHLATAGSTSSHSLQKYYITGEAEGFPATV
Put plainly: Relative binding affinity (RBA), radiolabel competition assay, estrogen alpha receptor. Particulars: for RBAα: estradiol=100; for RBA for ERα: relative to estradiol (set at 100%).

Series [2] deals with T2, ERβ (Homo sapiens, UniProt Q92731). Put plainly: Relative binding affinity (RBA), radiolabel competition assay, estrogen beta receptor. The following applies: for RBAβ: estradiol=100; for RBA for ERβ: relative to estradiol (set at 100%).
T2 sequence (Q92731 whole entry): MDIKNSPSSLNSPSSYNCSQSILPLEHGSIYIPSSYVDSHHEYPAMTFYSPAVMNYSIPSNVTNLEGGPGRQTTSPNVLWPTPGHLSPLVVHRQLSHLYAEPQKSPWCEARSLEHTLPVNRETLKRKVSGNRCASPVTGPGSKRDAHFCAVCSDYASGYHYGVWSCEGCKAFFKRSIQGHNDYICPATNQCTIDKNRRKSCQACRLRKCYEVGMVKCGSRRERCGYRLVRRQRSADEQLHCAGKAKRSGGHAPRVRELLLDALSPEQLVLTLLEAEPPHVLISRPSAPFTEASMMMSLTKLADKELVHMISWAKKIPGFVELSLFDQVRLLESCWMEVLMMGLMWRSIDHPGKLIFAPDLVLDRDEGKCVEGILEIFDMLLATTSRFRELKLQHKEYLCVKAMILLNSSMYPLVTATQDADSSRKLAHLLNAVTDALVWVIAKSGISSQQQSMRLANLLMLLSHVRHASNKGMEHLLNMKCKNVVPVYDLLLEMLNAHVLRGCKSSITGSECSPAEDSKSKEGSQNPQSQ
Series [3] has as its target T1, ERα. Put plainly: Relative transcription assay (RTA), estrogen response element driven luciferase, estrogen alpha receptor. Type of series: cell-based. The following applies: for RTAα: relative transcription activity, estradiol=100.
Series [4] has as its target T2, ERβ. The experiment in a line: Relative transcription assay (RTA), estrogen response element driven luciferase, estrogen beta receptor. The class given is cell-based. Particulars: for RTAβ: relative transcription activity, estradiol=100; for hormonal potency / transcriptional activation at ERβ, in words: result in words.
A further series concerns intact hepatocytes. The following applies: read-out: LC50, 2 hour exposure.
Where [5] appears, read: ring C saturated compounds, natural stereochemistry at C9.
The mark [6] stands for this setting: double bond in ring C (C9-C11 or C9-C8), tested as mixtures except entries 16, 17, 19, 20, 25, 26.
Where [7] appears, read: double bond in ring C, mixtures except entries 16, 17, 19, 20, 25, 26.
Setting [8] is: 9-hydroxy compounds, natural stereochemistry at C9.

On to `C=Cc1cc(O)cc2nc(-c3ccc(O)c(F)c3)oc12` [ERB-041], for which, in the series on ERβ vs. ERα, the “binding affinity ERβ/ERα ratio” value was 226.
Turning to `C[C@]12CC[C@H](c3ccc(O)cc3)CC1CC[C@@H]2O` (stereo partly drawn) [Entry 1], the RBAα at ERα [1] (setting [5]) came to 1.5. Moreover, the “RBA for ERα” value at ERα [1] is 1.7% and 1.5%. For the same compound, the “selective binding, favouring ERβ by a factor” value at ERβ [2] (ERβ over ERα) is 15. Also, on ERβ [2] (setting [5]), the RBAβ was found to be 21.5 and the RBAβ/RBAα is recorded as 14.6. In addition, at ERβ [2], the “RBA for ERβ” value came to 21.5%. For the same compound, at ERα [3], the RTAα is 4.3. At ERα [3] (listed as 1*), this compound displayed an RTAα of −8.9. For the same compound, at ERβ [4], the “Ratio RTAβ/RTAα” value was 38 and the RTAβ worked out at 164. Besides, at ERβ [4] (listed as 1*), the RTAβ was found to be 7.7. In addition, in “in vitro” (intact hepatocytes), the CC50 at 2 h was 320 to 400 µM.
On ERα [1] (setting [5]), `C[C@]12CC[C@H](c3ccc(O)c(F)c3)CC1CC[C@@H]2O` (stereo partly drawn) [Entry 2] came in with an RBAα of 1.0. The “RBA for ERα” value at ERα [1] is 1.0%. On ERβ [2] (setting [5]), this compound yielded an RBAβ of 8.7 and an RBAβ/RBAα of 8.7. The “RBA for ERβ” value on ERβ [2] worked out at 8%. Besides, the RTAα at ERα [3] is given as −8.3. Also, on ERβ [4], the RTAβ was found to be 14 and the “hormonal potency / transcriptional activation at ERβ, in words” value was “weak agonist for ERβ”. The compound also had a CC50 at 2 h in the series “in vitro” (intact hepatocytes) of 400 to 450 µM.
The compound `C[C@]12CC[C@H](c3ccc(O)cc3F)CC1CC[C@@H]2O` (stereo partly drawn) [Entry 3] yielded an RBAα on ERα [1] (setting [5]) of 27.3. At ERβ [2] (setting [5]), the RBAβ worked out at 135.5 and the RBAβ/RBAα worked out at 5.0. Moreover, on ERβ [2] (result in words), the “RBA for the ERβ receptor compared with estradiol, in words” value is “exceeded that of estradiol itself”. On ERα [3], this compound had an RTAα of 44. Further, the “transcriptional activation at ERα, in words” value on ERα [3] (result in words) was “both an ERα and an ERβ agonist”. For the same compound, at ERβ [4], the “Ratio RTAβ/RTAα” value stood at 3.6; the RTAβ was determined as 162; the “hormonal potency / transcriptional activation at ERβ, in words” value was “both an ERα and an ERβ agonist”. Besides, the CC50 at 2 h in the series “in vitro” (intact hepatocytes) is 250 to 280 µM.
For the compound `C[C@]12CC[C@H](c3cc(F)c(O)c(F)c3)CC1CC[C@@H]2O` (stereo partly drawn) [Entry 4], the RBAα at ERα [1] (setting [5]) was determined as 0.4. At ERβ [2] (setting [5]), this compound displayed an RBAβ of 0.28 and an RBAβ/RBAα of 7.0.
As for `C[C@]12CC[C@H](c3ccc(O)c(F)c3F)CC1CC[C@@H]2O` (stereo partly drawn) [Entry 5], the RBAα at ERα [1] (setting [5]) is on record as 4.6. At ERβ [2] (setting [5]), the RBAβ turned out to be 42.8 and the RBAβ/RBAα came out at 9.3. For the same compound, the RTAα at ERα [3] stood at 18. Further, on ERβ [4], the “Ratio RTAβ/RTAα” value was found to be 8.4 and the RTAβ was determined as 151. Moreover, in the series “in vitro” (intact hepatocytes), the CC50 at 2 h was in the range of 155 to 200 µM.
`C[C@]12CC[C@H](c3cc(F)c(O)c(F)c3F)CC1CC[C@@H]2O` (stereo partly drawn) [Entry 7] came in with an RBAα on ERα [1] (setting [5]) of 0.19. Moreover, on ERβ [2] (setting [5]), the RBAβ came out at 1.73 and the RBAβ/RBAα stood at 9.1. The “further reduction in binding, factor” value on ERβ [2] (in comparison with entry 3) is “about 10”. Further, at ERα [3], the RTAα amounted to 11. Besides, at ERβ [4], the “Ratio RTAβ/RTAα” value is 4.8 and the RTAβ was determined as 53. Moreover, the CC50 with intact hepatocytes was over 600 µM. This compound also returned a CC50 at 2 h in “in vitro” (intact hepatocytes) of over 600 µM.
For the compound `C[C@]12CC[C@H](c3ccc(O)cc3Cl)CC1CC[C@@H]2O` (stereo partly drawn) [Entry 8], on ERα [1] (setting [5]), the RBAα was found to be 55.3. For the same compound, the RTAα at ERα [3] came to 88. This compound had an RTAβ on ERβ [4] of 188.
The compound `Cc1cc(O)ccc1[C@H]1CC[C@@]2(C)C(CC[C@@H]2O)C1` (stereo partly drawn) [Entry 9] had an RBAα at ERα [1] (setting [5]) of 2.8. On ERβ [2] (setting [5]), this compound came in with an RBAβ of 33.6 and an RBAβ/RBAα of 11.9. The same compound gave an RTAα on ERα [3] of −9.7. Further, at ERβ [4], the RTAβ turned out to be 149.
As to `C[C@]12CC=C(c3cc(F)c(O)cc3F)CC1CC[C@@H]2O` (stereo partly drawn) [Entry 16], the RBAα at ERα [1] (setting [6]) was determined as 0.44. Further, the RBAβ/RBAα at ERβ [2] (setting [7]) turned out to be 5.1. The RBAβ at ERβ [2] (setting [6]) is recorded as 2.6.
The matching figures for `C[C@]12CCC(c3cc(F)c(O)cc3F)=CC1CC[C@@H]2O` (stereo partly drawn) [Entry 17]: 0.38, 6.8 and 3.3.
Regarding `C[C@]12CC=C(c3ccc(O)cc3Cl)CC1CC[C@@H]2O` (stereo partly drawn) [Entry 19], the RBAα at ERα [1] (setting [6]) was 60. The RBAβ/RBAα at ERβ [2] (setting [7]) is recorded as 2.0. Moreover, the RBAβ at ERβ [2] (setting [6]) is on record as 118. On ERα [3], the RTAα came to 120. For the same compound, on ERβ [4], the “Ratio RTAβ/RTAα” value was found to be 1.6 and the RTAβ is 157.
As to `C[C@]12CCC(c3ccc(O)cc3Cl)=CC1CC[C@@H]2O` (stereo partly drawn) [Entry 20], the RBAα on ERα [1] (setting [6]) was determined as 195. Besides, the RBAβ/RBAα at ERβ [2] (setting [7]) was 1.7. The RBAβ on ERβ [2] (setting [6]) was 331. Also, the RTAα on ERα [3] was 98. On ERβ [4], the “Ratio RTAβ/RTAα” value was 2.1 and the RTAβ came to 188.
With `C[C@]12CC=C(c3ccc(O)cc3CCSCc3ccccc3)CC1CC[C@@H]2O` (stereo partly drawn) [Entry 25], on ERα [1] (setting [6]), the RBAα was determined as 0.32. For the same compound, the RBAβ/RBAα on ERβ [2] (setting [7]) was 2.2. Further, the RBAβ on ERβ [2] (setting [6]) is 0.76.
Consider `C[C@]12CCC(c3ccc(O)cc3CCSCc3ccccc3)=CC1CC[C@@H]2O` (stereo partly drawn) [Entry 26], for which the RBAα at ERα [1] (setting [6]) turned out to be 0.31. For the same compound, the RBAβ/RBAα at ERβ [2] (setting [7]) is on record as 0.86. Also, the RBAβ on ERβ [2] (setting [6]) came to 0.27. Further, the RTAα at ERα [3] was found to be 6.7. Further, on ERβ [4], the “Ratio RTAβ/RTAα” value is 2.2 and the RTAβ is on record as 15.6.
With `C[C@]12CC[C@](O)(c3ccc(O)cc3)CC1CC[C@@H]2O` (stereo partly drawn) [Entry 27], the RBAα on ERα [1] (setting [8]) came to 0.01. Further, on ERβ [2] (setting [8]), the RBAβ/RBAα was determined as 10 and the RBAβ amounted to 0.1.
The matching figures for `C[C@]12CC[C@](O)(c3ccc(O)c(F)c3)CC1CC[C@@H]2O` (stereo partly drawn) [Entry 28]: 0.009, 13 and 0.12.
On ERα [1] (setting [8]), `C[C@]12CC[C@](O)(c3ccc(O)cc3F)CC1CC[C@@H]2O` (stereo partly drawn) [Entry 29] came in with an RBAα of 0.17. In addition, the “decrease in binding affinity” value at ERβ [2] (9-hydroxy compound compared to the saturated analog) was determined as 37 fold. Moreover, at ERβ [2] (setting [8]), the RBAβ/RBAα was determined as 21 and the RBAβ was determined as 3.6.
Consider `C[C@]12CC[C@](O)(c3cc(F)c(O)c(F)c3)CC1CC[C@@H]2O` (stereo partly drawn) [Entry 30], for which the RBAα on ERα [1] (setting [8]) is 0.005. For the same compound, on ERβ [2] (setting [8]), the RBAβ/RBAα amounted to 4.6 and the RBAβ is on record as 0.023.
`C[C@]12CC[C@@H]3c4ccc(O)cc4CC[C@H]3[C@@H]1CC[C@@H]2O` [Estradiol, 17β-estradiol, reference compound]: the RTAβ at ERβ [4] is reported as 100. In the series “in vitro”, this compound had a CC50 at 2 h of 400 to 450 µM.
Regarding `N#Cc1cc(-c2ccc(O)c(F)c2)cc2ccc(O)cc12` [WAY 202196], the “binding affinity ERβ/ERα ratio” value in the series on ERβ vs. ERα is 78.
